In patent US20260347372A1, “SMALL MOLECULE INHIBITORS OF KRAS G12D MUTANT” (MERCK SHARP & DOHME LLC, priority 2023, published 2026) one finds IC50 data, which are given here for eight compounds.

The target of one experiment is KRAS WT (Homo sapiens, UniProt P01116). In words: SOS-catalyzed nucleotide exchange assay, KRAS WT (Procedure A). The class given is biochemical. The settings on record: GNE. Put shortly:
(§1)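 Compounds were preincubated 60 min with a biotinylated RAS·Bodipy-GDP/Tb-streptavidin TR-FRET complex, and exchange was started with human SOS plus 3 mM GTP at RT. RAS/SOS: G12C 3 nM/40 nM, WT and G12D 1 nM/40 nM, all 60 min; G13D 1.25 nM/0 nM, 30 min. 520/495 ratio normalized to DMSO and saturating inhibitor, four-parameter fit.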

The next experiment addresses HRAS (Homo sapiens, UniProt P01112). In words: SOS-catalyzed nucleotide exchange assay, HRAS (Procedure A). The class given is biochemical. The following applies: GNE. An excerpt:
(§2) Procedure for SOS-Catalyzed Nucleotide Exchange Assay for KRAS-WT, G12C/D/V, G13D, HRAS, and NRAS (Procedure A)
(§3) Recombinant KRAS-G12C protein used in this assay has an additional triple mutation (C51S/C80L/C118S). Whereas KRAS-WT, G12D/V, G13D, HRAS and NRAS are in context of their WT protein sequence background. Specifically, the SOS-catalyzed nucleotide exchange assay utilizes a preformed TR-FRET complex containing a specific biotinylated RAS protein (KRAS-WT, G12C/V/D, G13D, HRAS, NRAS; described above) with Bodipy-GDP, and Terbium-streptavidin. Compounds are preincubated with this complex for 60 minutes. Subsequently, recombinant human SOS protein and unlabeled GTP are added to initiate the exchange reaction. Small molecule inhibitors stabilize the Bodipy-GDP complex whereas the untreated protein rapidly exchanges Bodipy-GDP for unlabeled GTP resulting in reduced TR-FRET signal.
(§4) To assemble the preformed TR-FRET complexes, each biotinylated RAS protein is diluted to 2 μM in an EDTA Buffer (20 mM HEPES pH 7.5, 50 mM sodium chloride, 10 mM EDTA, and 0.01% Tween) and incubated at room temperature for one hour. This mixture is then further diluted to 90 nM in an Assay Buffer (20 mM HEPES pH 7.5, 150 mM sodium chloride, 10 mM magnesium chloride, and 0.005% Tween) containing 15 nM of Terbium-Streptavidin (Invitrogen, catalog #PV3577) and 900 nM of Bodipy-GDP (Invitrogen, catalog #G22360) and incubated at room temperature for six hours. It should be noted that this preformed TR-FRET complex for each of the RAS protein were made ahead of time, aliquoted and stored at −80° C. until the day of the experiment.
(§5) Each test compound (10 mM stock in DMSO) is diluted in DMSO to make a final-10-point, 3-fold dilution and is acoustically dispensed into a 384-well assay plate (Corning, catalog #3820) using an Echo 550 (Labcyte). Each well of the assay plate receives 3 μL of a specific 3×RAS preformed TR-FRET complex and 3 μL of Assay Buffer and is incubated at room temperature for 60 minutes (preincubation time). Each well then receives 3 μL of 3× recombinant human SOS protein and GTP (Sigma, G8877) in Assay Buffer and is incubated at room temperature for 30 minutes (G13D), 60 minutes (KRAS WT/G12C/D, H/NRAS) or 90 minutes for G12V. The final reaction in each well of 9 μL consists of 3 mM GTP, specific Ras and SOS proteins in the following concentrations: KRAS-G12C/SOS=3 nM/40 nM, KRAS-WT and G12D/SOS=1 nM/40 nM, KRAS-G12V/SOS=1.25 nM/160 nM, KRAS-G13D/SOS=1.25 nM/0 nM, HRAS and NRAS=1.25 nM/40 nM.
(§6) The time-resolved fluorescence resonance energy transfer (TR-FRET) signal is measured on an Envision (PerkinElmer) plate reader: Excitation filter=340 nm; emission1=495 nm; emission2=520 nm; dichroic mirror=D400/D505; delay time=[…]. The signal of each well is determined as the ratio of the emission at 520 nm to that at 495 nm. Percent effect of each well is determined after normalization to control wells containing DMSO (no effect) or a saturating concentration of inhibitor (max effect). The apparent effect as a function of compound concentration is fit to a four-parameter logistic equation.
(§7) For Example No. 14, nucleotide exchange assays for KRAS G12D, WT, G12C, and G12V were performed according to Procedure B. All the other compounds were tested according to Procedure A.

The target of another experiment is KRAS G13D (Homo sapiens, UniProt P01116, G13D). In words: SOS-catalyzed nucleotide exchange assay, KRAS G13D (Procedure A). It is filed as biochemical. The following applies: GNE.
Excerpt: as §2, §3, §4, §5, §6, §7

The target in another experiment is KRAS G12D (Homo sapiens, UniProt P01116, G12D). Nature of the experiment: SOS-catalyzed nucleotide exchange assay, KRAS G12D (Procedure A). The class given is biochemical. The following applies: guanine nucleotide exchange (GNE). The procedure, abridged:
as §1

The target of the next experiment is KRAS G12V (Homo sapiens, UniProt P01116, G12V). In words: SOS-catalyzed nucleotide exchange assay, KRAS G12V (Procedure A). The class given is biochemical. The settings on record: GNE. The procedure, abridged: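 Biotinylated KRAS G12V was loaded with Bodipy-GDP alongside Terbium-streptavidin to form a TR-FRET complex, which was preincubated with compounds for 60 minutes in 384-well plates. Human SOS protein and unlabeled GTP were then added for 90 minutes, giving final concentrations of 1.25 nM KRAS-G12V, 160 nM SOS and 3 mM GTP. The 520/495 nm emission ratio was read on an Envision.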

The target in another experiment is KRAS G12C (Homo sapiens, UniProt P01116, C118S/C51S/C80L/G12C). In words: SOS-catalyzed nucleotide exchange assay, KRAS G12C (Procedure A). The class given is biochemical. The settings on record: GNE.
Excerpt: as §2, §3, §4, §5, §6, §7

The target in a further experiment is NRAS (Homo sapiens, UniProt P01111). In words: SOS-catalyzed nucleotide exchange assay, NRAS (Procedure A). It is filed as biochemical. The following applies: GNE.
Excerpt: as §2, §3, §4, §5, §6, §7

For another experiment, the target named is T1, AsPC-1 cells (Homo sapiens, UniProt P01116, G12D).
T1 construct: p-ERK/total ERK AlphaSureFire read-out
Nature of the experiment: Cellular phospho-ERK assay, AsPC-1 cells (KRAS G12D). It is filed as cell-based. The settings on record: 2 hours, read-out: AsPC1 pERK IC50. Put shortly: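 PANC08.13 or AsPC-1 cells (homozygous KRAS G12D) were seeded overnight, then treated for 2 h at 37 °C with a 10-point 1:3 titration from 30 μM. Lysates were assayed by AlphaLISA SureFire for p-ERK and total ERK. IC50 came from a 4-parameter fit of the p-ERK/total ERK ratio.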

Chain of KRAS G12C (P01116 with tags, fused parts or gaps isoform P01116-2 G12C/C51S/C80L/C118S): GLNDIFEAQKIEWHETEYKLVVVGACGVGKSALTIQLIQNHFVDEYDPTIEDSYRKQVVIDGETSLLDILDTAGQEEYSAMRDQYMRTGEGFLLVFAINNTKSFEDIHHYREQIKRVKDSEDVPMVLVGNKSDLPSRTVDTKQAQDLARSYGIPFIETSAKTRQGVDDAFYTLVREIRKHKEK
Chain of HRAS (P01112 with tags, fused parts or gaps): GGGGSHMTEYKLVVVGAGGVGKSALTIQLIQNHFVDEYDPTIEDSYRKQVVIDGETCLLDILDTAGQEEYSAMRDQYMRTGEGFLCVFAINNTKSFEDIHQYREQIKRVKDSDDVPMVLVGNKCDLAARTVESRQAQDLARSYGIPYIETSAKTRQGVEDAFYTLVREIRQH
Chain of KRAS G12V (P01116 with tags, fused parts or gaps isoform P01116-2 G12V): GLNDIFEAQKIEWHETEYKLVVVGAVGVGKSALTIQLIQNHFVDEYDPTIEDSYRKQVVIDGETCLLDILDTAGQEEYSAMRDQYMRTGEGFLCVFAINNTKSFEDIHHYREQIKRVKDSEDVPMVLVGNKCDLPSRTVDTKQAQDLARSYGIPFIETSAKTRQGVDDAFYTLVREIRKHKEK
Chain of KRAS G13D (P01116 with tags, fused parts or gaps isoform P01116-2 G13D): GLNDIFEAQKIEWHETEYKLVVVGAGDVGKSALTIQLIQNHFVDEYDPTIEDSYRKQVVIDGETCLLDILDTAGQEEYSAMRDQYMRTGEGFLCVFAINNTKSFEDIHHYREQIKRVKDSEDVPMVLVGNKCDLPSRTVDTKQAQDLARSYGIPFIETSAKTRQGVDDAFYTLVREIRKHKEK
Chain of KRAS G12D (P01116 with tags, fused parts or gaps isoform P01116-2 G12D): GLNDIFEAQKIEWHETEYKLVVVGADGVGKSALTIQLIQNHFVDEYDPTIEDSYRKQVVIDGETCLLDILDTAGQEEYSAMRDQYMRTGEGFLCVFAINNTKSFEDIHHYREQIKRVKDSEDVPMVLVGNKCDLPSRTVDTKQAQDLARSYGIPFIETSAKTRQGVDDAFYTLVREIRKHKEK
T1 sequence (P01116 1-188 isoform P01116-2 G12D): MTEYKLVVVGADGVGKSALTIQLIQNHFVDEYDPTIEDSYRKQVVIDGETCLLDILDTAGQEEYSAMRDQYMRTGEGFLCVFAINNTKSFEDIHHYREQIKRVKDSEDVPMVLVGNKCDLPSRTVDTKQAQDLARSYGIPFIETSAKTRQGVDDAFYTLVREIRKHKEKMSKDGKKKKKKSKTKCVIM
Chain of NRAS (P01111 with tags, fused parts or gaps): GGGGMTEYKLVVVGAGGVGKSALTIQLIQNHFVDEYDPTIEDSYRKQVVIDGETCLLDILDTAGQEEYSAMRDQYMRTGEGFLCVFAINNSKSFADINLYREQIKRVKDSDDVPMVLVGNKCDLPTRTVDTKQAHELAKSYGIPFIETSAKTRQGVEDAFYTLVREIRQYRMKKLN
Chain of KRAS WT (P01116 with tags, fused parts or gaps isoform P01116-2): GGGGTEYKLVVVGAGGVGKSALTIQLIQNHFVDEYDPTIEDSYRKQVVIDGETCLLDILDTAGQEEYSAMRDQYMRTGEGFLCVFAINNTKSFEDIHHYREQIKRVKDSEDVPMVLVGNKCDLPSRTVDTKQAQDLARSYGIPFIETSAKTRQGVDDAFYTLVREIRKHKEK

Take `Cc1cc2[nH]ncc2c(-c2nccc3c2sc2nc(OC[C@@]45CCCN4C[C@H](F)C5)nc(N4CC5COCC(C4)N5)c23)c1C(F)(F)F` [Ex-65, 7-(2-(((2R,7aS)-2-fluorotetrahydro-1H-pyrrolizin-7a(5H)-yl)methoxy)-8-(6-methyl-5-(trifluoromethyl)-1H-indazol-4-yl)pyrido[4′,3′:4,5]thieno[2,3-d]pyrimidin-4-yl)-3-oxa-7,9-diazabicyclo[3.3.1]nonane]: the IC50 (commonly the midpoint of a concentration-inhibition curve) is 8.79 µM at KRAS WT; over 11.1 µM at HRAS; 2740 nM at KRAS G13D; 128 nM on KRAS G12D; over 11.1 µM against KRAS G12V; 1960 nM at KRAS G12C. The figures for the IC50 on NRAS and at AsPC-1 cells were over 11.1 µM and 1700 nM, respectively.
As to `Cc1cc2[nH]ncc2c(-c2nccc3c2sc2nc(OC[C@@]45CCCN4C[C@H](F)C5)nc(N4CC5CC(C4)N5)c23)c1C(F)(F)F` [Ex-67, 4-(3,6-diazabicyclo[3.1.1]heptan-3-yl)-2-(((2R,7aS)-2-fluorotetrahydro-1H-pyrrolizin-7a(5H)-yl)methoxy)-8-(6-methyl-5-(trifluoromethyl)-1H-indazol-4-yl)pyrido[4′,3′:4,5]thieno[2,3-d]pyrimidine], the IC50 is 0.856 µM against KRAS WT; over 11.1 µM against HRAS; 323 nM on KRAS G13D; 13.1 nM at KRAS G12D; 0.672 µM against KRAS G12V; 265 nM against KRAS G12C. Further, the 50% inhibitory concentration (IC50) was over 11.1 µM against NRAS and 699 nM at AsPC-1 cells.
In the case of `Cc1cc2[nH]ncc2c(-c2nccc3c2sc2nc(OC[C@@]45CCCN4C[C@H](F)C5)nc(N4C5CNCC4C5)c23)c1C(F)(F)F` [Ex-68, 4-(3,6-diazabicyclo[3.1.1]heptan-6-yl)-2-(((2R,7aS)-2-fluorotetrahydro-1H-pyrrolizin-7a(5H)-yl)methoxy)-8-(6-methyl-5-(trifluoromethyl)-1H-indazol-4-yl)pyrido[4′,3′:4,5]thieno[2,3-d]pyrimidine], the 50% inhibitory concentration (IC50) against KRAS WT is 6.6 µM; against HRAS it was over 11.1 µM; against KRAS G13D it was 3050 nM; at KRAS G12D, 267 nM; on KRAS G12V it was 1.36 µM; against KRAS G12C, 1850 nM. In addition, the IC50 on NRAS is over 11.1 µM; at AsPC-1 cells, 11100 nM.
Turning to `Cc1cc2[nH]ncc2c(-c2nccc3c2sc2nc(OC[C@@]45CCCN4C[C@H](F)C5)nc(N4C[C@@H]5C[C@H]4CN5)c23)c1C(F)(F)F` [Ex-69, 4-((1S,4S)-2,5-diazabicyclo[2.2.1]heptan-2-yl)-2-(((2R,7aS)-2-fluorotetrahydro-1H-pyrrolizin-7a(5H)-yl)methoxy)-8-(6-methyl-5-(trifluoromethyl)-1H-indazol-4-yl)pyrido[4′,3′:4,5]thieno[2,3-d]pyrimidine], the half-maximal inhibitory concentration (IC50) against KRAS WT is 4.91 µM; at HRAS it was over 11.1 µM; against KRAS G13D, 1210 nM; on KRAS G12D, 35.6 nM; on KRAS G12V it was over 11.1 µM; against KRAS G12C, 1740 nM. The IC50 is over 11.1 µM against NRAS and 1540 nM on AsPC-1 cells.
Regarding `Cc1cc2[nH]ncc2c(-c2nccc3c2sc2nc(OC[C@@]45CCCN4C[C@H](F)C5)nc(N4C[C@H]5C[C@@H]4CN5)c23)c1C(F)(F)F` [Ex-70, 4-((1R,4R)-2,5-diazabicyclo[2.2.1]heptan-2-yl)-2-(((2R,7aS)-2-fluorotetrahydro-1H-pyrrolizin-7a(5H)-yl)methoxy)-8-(6-methyl-5-(trifluoromethyl)-1H-indazol-4-yl)pyrido[4′,3′:4,5]thieno[2,3-d]pyrimidine], the IC50 against KRAS WT was 7.5 µM; against HRAS it was over 11.1 µM; at KRAS G13D, 2260 nM; against KRAS G12D, 836 nM; against KRAS G12V, 9.75 µM; against KRAS G12C it was 948 nM. In addition, the IC50 against NRAS is over 11.1 µM; on AsPC-1 cells it was 5110 nM.
On to `Cc1cc2[nH]ncc2c(-c2nccc3c2sc2nc(OC[C@@]45CCCN4C[C@H](F)C5)nc(N4[C@@H]5CC[C@H]4CNC5)c23)c1C(F)(F)F` [Ex-71, 4-((1R,5S)-3,8-diazabicyclo[3.2.1]octan-8-yl)-2-(((2R,7aS)-2-fluorotetrahydro-1H-pyrrolizin-7a(5H)-yl)methoxy)-8-(6-methyl-5-(trifluoromethyl)-1H-indazol-4-yl)pyrido[4′,3′:4,5]thieno[2,3-d]pyrimidine], for which the IC50 is 8.09 µM against KRAS WT; over 11.1 µM against HRAS; 2510 nM against KRAS G13D; 34.8 nM at KRAS G12D; 5.16 µM against KRAS G12V; 1100 nM at KRAS G12C. Moreover, the results for the half-maximal inhibitory concentration (IC50) at NRAS and at AsPC-1 cells were over 11.1 µM and 885 nM, respectively.
For the compound `Cc1cc2[nH]ncc2c(-c2nccc3c2sc2nc(OC[C@@]45CCCN4C[C@H](F)C5)nc(N4CCC5CCC(C4)N5)c23)c1C(F)(F)F` (stereo partly drawn) [Ex-72, 4-(3,9-diazabicyclo[4.2.1]nonan-3-yl)-2-(((2R,7aS)-2-fluorotetrahydro-1H-pyrrolizin-7a(5H)-yl)methoxy)-8-(6-methyl-5-(trifluoromethyl)-1H-indazol-4-yl)pyrido[4′,3′:4,5]thieno[2,3-d]pyrimidine], the IC50 on KRAS WT is over 11.1 µM; against HRAS, over 11.1 µM; at KRAS G13D it was 2620 nM; against KRAS G12D, 5300 nM; against KRAS G12V, over 11.1 µM; against KRAS G12C, over 11100 nM. Besides, the IC50 at NRAS is over 11.1 µM; at AsPC-1 cells, over 30000 nM.
Regarding `Cc1cc2[nH]ncc2c(-c2nccc3c2sc2nc(OC[C@@]45CCCN4C[C@H](F)C5)nc(N4[C@@H]5CC[C@H]4CN(C)C5)c23)c1C(F)(F)F` [Ex-73, 2-(((2R,7aS)-2-fluorotetrahydro-1H-pyrrolizin-7a(5H)-yl)methoxy)-8-(6-methyl-5-(trifluoromethyl)-1H-indazol-4-yl)-4-((1R,5S)-3-methyl-3,8-diazabicyclo[3.2.1]octan-8-yl)pyrido[4′,3′:4,5]thieno[2,3-d]pyrimidine], the IC50 on KRAS WT was over 11.1 µM; against HRAS, over 11.1 µM; against KRAS G13D, over 11100 nM; on KRAS G12D it was 1390 nM; against KRAS G12V, over 11.1 µM; against KRAS G12C, over 11100 nM. For the same compound, the values for the IC50 at NRAS and at AsPC-1 cells were over 11.1 µM and 4790 nM, respectively.
